Reference: the NIST ThermoML archive (doi:10.1021/je0505366)
Numbers after ± are expanded uncertainties.

Legend:
[1] = refractive index (Na D-line) (dimensionless); details: 101.33 kPa, Liquid, Standard Abbe refractometry
[2] = Liquid; for mass density: 101.33 kPa; for vapor or sublimation pressure: 383.15 K, Ebulliometric method (Recirculating still)

SMILES | refractive index ([1]; 293.15 K) | mass density ([2]; 293.15 K) [kg/m3] | vapor or sublimation pressure [2] [kPa] | further results
Cc1ccccc1 [toluene] | 1.496 ± 0.0007 | 866.78 ± 0.23 |  | 
CCCCCCCC [octane] |  |  | 64.09 ± 0.07 | refractive index ([1]; 298.15 K): 1.3946 ± 0.0007; mass density ([2]; 298.15 K): 698.49 ± 0.39 kg/m3
NC1CCCCC1 [cyclohexylamine] |  |  |  | refractive index ([1]; 288.15 K): 1.4624 ± 0.0007; mass density ([2]; 303.15 K): 858.2 ± 0.23 kg/m3
Nc1ccccc1 [aniline] | 1.5862 ± 0.0007 | 1021.72 ± 0.18 | 9.21 ± 0.02 | 
O [water] | 1.3336 ± 0.0007 |  |  | 
